Target: T1, GFRα1-RET (Homo sapiens, UniProt P56159)
T1 construct: expressed in transfected cells; host or cells: MG87 murine fibroblasts, stably transfected
T1 sequence (P56159 25-429 limits assumed): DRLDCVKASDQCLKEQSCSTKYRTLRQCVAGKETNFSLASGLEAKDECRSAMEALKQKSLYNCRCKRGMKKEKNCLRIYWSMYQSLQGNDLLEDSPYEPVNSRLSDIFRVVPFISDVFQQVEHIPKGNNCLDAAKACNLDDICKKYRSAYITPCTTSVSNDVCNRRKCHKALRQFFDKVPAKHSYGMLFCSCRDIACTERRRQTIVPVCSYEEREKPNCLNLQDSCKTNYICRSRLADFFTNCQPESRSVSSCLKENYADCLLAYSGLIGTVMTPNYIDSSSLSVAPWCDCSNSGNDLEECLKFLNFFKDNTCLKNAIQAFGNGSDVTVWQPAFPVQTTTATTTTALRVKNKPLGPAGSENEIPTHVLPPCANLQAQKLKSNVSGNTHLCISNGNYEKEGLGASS
Experiment: Elk1 reporter-gene (luciferase) assay in cells expressing GFRα1-RET
Assay type: cell-based
Settings: MG87 murine fibroblasts stably transfected with PathDetect Elk-1, GFRα1 and RET, 6 concentrations, agonist/activator activity
Description: For ECso determination, a dose-response test was performed using 6 concentrations of each tested compound. Dose-response curves were fitted using the sigmoidal dose-response (variable slope) analysis in GraphPad Prism program (Graph Pad Inc) and ECso of agonist/activator activity was calculated. Dose-response experiments were all performed in duplicate, two times independently.

Q: For `O=C(c1ccc(F)cc1Cl)N1C[C@H]2CC[C@@H](C1)N2c1cc(S(=O)(=O)N2CCC(c3ccc(F)cc3)CC2)cc(Cl)c1O` [compound 099, (2-chloro-4-fluoro-phenyl)-[(1S,5R)-8-[3-chloro-5-[[4-(4-fluorophenyl)-1-piperidyl]sulfonyl]-2-hydroxy-phenyl]-3,8-diazabicyclo[3.2.1]octan-3-yl]methanone], which EC50 is on record?
A: < 1000 nM

Q: Which EC50 does the source give for `CC(C)NS(=O)(=O)c1cc(Cl)c(O)c(N2[C@@H]3CC[C@H]2CN(C(=O)c2ccc(F)cc2Cl)C3)c1` [compound 100] here?
A: < 1000 nM

Q: How did the EC50 turn out when `CC1(NS(=O)(=O)c2cc(Cl)c(O)c(N3[C@@H]4CC[C@H]3CN(C(=O)c3ccc(F)cc3Cl)C4)c2)CC1` [compound 101, 3-chloro-5-[(1S,5R)-3-(2-chloro-4-fluoro-benzoyl)-3,8-diazabicyclo[3.2.1]octan-8-yl]-4-hydroxy-N-(1-methylcyclopropyl) benzenesulfonamide] was run?
A: 1000 to 10000 nM

Q: `CC1(NS(=O)(=O)c2cc(Cl)c(O)c(N3[C@@H]4CC[C@H]3CN(C(=O)c3ccc(F)cc3Cl)C4)c2)CCC1` [compound 102, 3-chloro-5-[(1S,5R)-3-(2-chloro-4-fluoro-benzoyl)-3,8-diazabicyclo[3.2.1]octan-8-yl]-4-hydroxy-N-(1-methylcyclobutyl) benzenesulfonamide] was tested. Which EC50 did it give?
A: < 1000 nM

Q: `CC(C)(C#N)NS(=O)(=O)c1cc(Cl)c(O)c(N2[C@@H]3CC[C@H]2CN(C(=O)c2ccc(F)cc2Cl)C3)c1` [compound 103] was tested. Which EC50 did it give?
A: 1000 to 10000 nM

Q: How did the EC50 turn out when `CC(C)(NS(=O)(=O)c1cc(Cl)c(O)c(N2[C@@H]3CC[C@H]2CN(C(=O)c2ccc(F)cc2Cl)C3)c1)C(F)(F)F` [compound 105, 3-chloro-5-[(1S,5R)-3-(2-chloro-4-fluoro-benzoyl)-3,8-diazabicyclo[3.2.1]octan-8-yl]-4-hydroxy-N-(2,2,2-trifluoro-1,1-dimethyl-ethyl)benzenesulfonamide] was run?
A: < 1000 nM

Q: `CN(C1(C)COC1)S(=O)(=O)c1cc(Cl)c(O)c(N2[C@@H]3CC[C@H]2CN(C(=O)c2ccc(F)cc2Cl)C3)c1` [compound 106, 3-chloro-5-[(1S,5R)-3-(2-chloro-4-fluoro-benzoyl)-3,8-diazabicyclo[3.2.1]octan-8-yl]-4-hydroxy-N-methyl-N-(3-methyloxetan-3-yl)benzenesulfonamide] was tested. Which EC50 did it give?
A: < 1000 nM

Q: `CN(C(C)(C)C)S(=O)(=O)c1cc(Cl)c(O)c(N2[C@@H]3CC[C@H]2CN(C(=O)c2ccc(F)cc2Cl)C3)c1` [compound 107] was tested. Which EC50 did it give?
A: < 1000 nM

Q: Which EC50 does the source give for `CC1(NS(=O)(=O)c2cc(Cl)c(O)c(N3[C@@H]4CC[C@H]3CN(C(=O)c3ccc(F)cc3Cl)C4)c2)COC1` [compound 108] here?
A: 1000 to 10000 nM

Q: With `CN(C1COC1)S(=O)(=O)c1cc(Cl)c(O)c(N2[C@@H]3CC[C@H]2CN(C(=O)c2ccc(F)cc2Cl)C3)c1` [compound 109, 3-chloro-5-[(1S,5R)-3-(2-chloro-4-fluoro-benzoyl)-3,8-diazabicyclo[3.2.1]octan-8-yl]-4-hydroxy-N-methyl-N-(oxetan-3-yl)benzenesulfonamide] as the molecule, how does the EC50 read?
A: 1000 to 10000 nM

Q: With `C[C@H]1CN(C(=O)c2ccc(F)cc2Cl)CCN1c1cc(S(=O)(=O)NC(C)(C)C)cc(Cl)c1O` [compound 110, N-tert-butyl-3-chloro-5-[(2S)-4-(2-chloro-4-fluoro-benzoyl)-2-methyl-piperazin-1-yl]-4-hydroxy-benzenesulfonamide] as the molecule, how does the EC50 read?
A: < 1000 nM

Q: With `C[C@@H]1CN(C(=O)c2ccc(F)cc2Cl)CCN1c1cc(S(=O)(=O)NC(C)(C)C)cc(Cl)c1O` [compound 111, N-tert-butyl-3-chloro-5-[(2R)-4-(2-chloro-4-fluoro-benzoyl)-2-methyl-piperazin-1-yl]-4-hydroxy-benzenesulfonamide] as the molecule, how does the EC50 read?
A: < 1000 nM

Q: Which EC50 does the source give for `CC(C)(C)NS(=O)(=O)c1cc(Cl)c(OCCO)c(N2[C@@H]3CC[C@H]2CN(C(=O)c2ccc(F)cc2Cl)C3)c1` [compound 112] here?
A: < 1000 nM

Q: For `COCCOc1c(Cl)cc(S(=O)(=O)NC(C)(C)C)cc1N1[C@@H]2CC[C@H]1CN(C(=O)c1ccc(F)cc1Cl)C2` [compound 113], which EC50 is on record?
A: < 1000 nM

Q: With `COc1c(Cl)cc(S(=O)(=O)NC(C)(C)C)cc1N1[C@@H]2CC[C@H]1CN(C(=O)c1ccc(F)cc1Cl)C2` [compound 114, N-tert-butyl-3-chloro-5-[(1S,5R)-3-(2-chloro-4-fluoro-benzoyl)-3,8-diazabicyclo[3.2.1]octan-8-yl]-4-methoxy-benzenesulfonamide] as the molecule, how does the EC50 read?
A: < 1000 nM

Q: For `CCCN(C)S(=O)(=O)c1ccc(Cl)c(N2[C@@H]3CC[C@H]2CN(C(=O)c2ccc(F)cc2Cl)C3)c1` [compound 115, 4-chloro-3-[(1S,5R)-3-(2-chloro-4-fluoro-benzoyl)-3,8-diazabicyclo[3.2.1]octan-8-yl]-N-methyl-N-propyl-benzenesulfonamide], which EC50 is on record?
A: < 1000 nM

Q: For `Cc1ccc(S(=O)(=O)N2CCN(CCc3ccc(F)cc3)CC2)cc1N1[C@@H]2CC[C@H]1CN(C(=O)c1ccc(F)cc1Cl)C2` [compound 116, (2-chloro-4-fluoro-phenyl)-[(1S,5R)-8-[5-[4-[2-(4-fluorophenyl)ethyl]piperazin-1-yl]sulfonyl-2-methyl-phenyl]-3,8-diazabicyclo[3.2.1]octan-3-yl]methanone], which EC50 is on record?
A: < 1000 nM

Q: How did the EC50 turn out when `O=C(c1ccc(F)cc1Cl)N1C[C@H]2CC[C@@H](C1)N2c1cc(S(=O)(=O)N2CCC(c3ccccc3)CC2)cc2c1OCO2` [compound 117, (2-chloro-4-fluoro-phenyl)-[(1S,5R)-8-[6-[(4-phenyl-1-piperidyl)sulfonyl]-1,3-benzodioxol-4-yl]-3,8-diazabicyclo[3.2.1]octan-3-yl]methanone] was run?
A: < 1000 nM

Q: For `O=C(c1ccc(F)cc1Cl)N1C[C@H]2CC[C@@H](C1)N2c1cc(S(=O)(=O)N2CCC(c3ccccc3)CC2)cc2c1OCCO2` [compound 118, (2-chloro-4-fluoro-phenyl)-[(1S,5R)-8-[7-[(4-phenyl-1-piperidyl)sulfonyl]-2,3-dihydro-1,4-benzodioxin-5-yl]-3,8-diazabicyclo[3.2.1]octan-3-yl]methanone], which EC50 is on record?
A: < 1000 nM

Q: Which EC50 does the source give for `CN1CCc2cc(S(=O)(=O)N3CCC(c4ccccc4)CC3)cc(N3[C@@H]4CC[C@H]3CN(C(=O)c3ccc(F)cc3Cl)C4)c21` [compound 119, (2-chloro-4-fluoro-phenyl)-[(1S,5R)-8-[1-methyl-5-[(4-phenyl-1-piperidyl)sulfonyl]indolin-7-yl]-3,8-diazabicyclo[3.2.1]octan-3-yl]methanone] here?
A: < 1000 nM

Q: For `CN1CCc2cc(S(=O)(=O)N3CCC(c4ccccc4)CC3)cc(N3[C@@H]4CC[C@H]3CN(C(=O)c3cc(F)c(F)cc3Cl)C4)c21` [compound 120, (2-chloro-4,5-difluoro-phenyl)-[(1S,5R)-8-[1-methyl-5-[(4-phenyl-1-piperidyl)sulfonyl]indolin-7-yl]-3,8-diazabicyclo[3.2.1]octan-3-yl]methanone], which EC50 is on record?
A: < 1000 nM

Q: Which EC50 does the source give for `CN(C)c1ccc(S(=O)(=O)N2CCC(c3ccccc3)CC2)cc1N1[C@@H]2CC[C@H]1CN(C(=O)c1ccc(F)cc1Cl)C2` [compound 121, (2-chloro-4-fluoro-phenyl)-[(1S,5R)-8-[2-(dimethylamino)-5-[(4-phenyl-1-piperidyl)sulfonyl]phenyl]-3,8-diazabicyclo[3.2.1]octan-3-yl]methanone] here?
A: < 1000 nM

Q: With `CN(C)c1ccc(S(=O)(=O)N2CCC(c3ccccc3)CC2)cc1N1[C@@H]2CC[C@H]1CN(C(=O)c1cc(F)c(F)cc1Cl)C2` [compound 122, (2-chloro-4,5-difluoro-phenyl)-[(1S,5R)-8-[2-(dimethylamino)-5-[(4-phenyl-1-piperidyl)sulfonyl]phenyl]-3,8-diazabicyclo[3.2.1]octan-3-yl]methanone] as the molecule, how does the EC50 read?
A: < 1000 nM

Q: `CNC1CN(c2ccc(S(=O)(=O)N3CCC(c4ccccc4)CC3)cc2N2[C@@H]3CC[C@H]2CN(C(=O)c2ccc(F)cc2Cl)C3)C1` [compound 123, (2-chloro-4-fluoro-phenyl)-[(1S,5R)-8-[2-[3-(methylamino)azetidin-1-yl]-5-[(4-phenyl-1-piperidyl)sulfonyl]phenyl]-3,8-diazabicyclo[3.2.1]octan-3-yl]methanone] was tested. Which EC50 did it give?
A: < 1000 nM

Q: `Cc1c(O)cc(S(=O)(=O)N2CCC(c3ccccc3)CC2)cc1N1[C@@H]2CC[C@H]1CN(C(=O)c1ccc(F)cc1Cl)C2` [compound 124, (2-chloro-4-fluoro-phenyl)-[(1S,5R)-8-[3-hydroxy-2-methyl-5-[(4-phenyl-1-piperidyl)sulfonyl]phenyl]-3,8-diazabicyclo[3.2.1]octan-3-yl]methanone] was tested. Which EC50 did it give?
A: < 1000 nM

Q: For `N#Cc1ccc(S(=O)(=O)N2CCC(c3ccccc3)CC2)cc1N1[C@@H]2CC[C@H]1CN(C(=O)c1ccc(F)cc1Cl)C2` [compound 125], which EC50 is on record?
A: < 1000 nM

Q: Which EC50 does the source give for `COc1ccc(S(=O)(=O)NC(C)(C)C)cc1N1[C@@H]2CC[C@H]1CN(C(=O)c1cc(F)c(F)cc1Cl)C2` [compound 129, N-tert-butyl-3-[(1S,5R)-3-(2-chloro-4,5-difluoro-benzoyl)-3,8-diazabicyclo[3.2.1]octan-8-yl]-4-methoxy-benzenesulfonamide] here?
A: < 1000 nM

Q: For `O=C(c1ccc(F)cc1Cl)N1C[C@H]2CC[C@@H](C1)N2c1cc(S(=O)(=O)N2CCC(F)CC2)cc2c1OCC2` [compound 130, (2-chloro-4-fluoro-phenyl)-[(1S,5R)-8-[5-[(4-fluoro-1-piperidyl)sulfonyl]-2,3-dihydrobenzofuran-7-yl]-3,8-diazabicyclo[3.2.1]octan-3-yl]methanone], which EC50 is on record?
A: < 1000 nM

From patent publication US20260022096A1, “NOVEL SULFONAMIDES AND THEIR USE AS NEUROPROTECTIVE AND/OR NEURORESTORATIVE AGENTS” (GENECODE, priority 2022, published 2026)
